# Active and inactive are the calls of the source.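 The calls were made as follows: active = fusion inhibition of 50% or more at any tested concentration; inactive = the rest.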
# Tested on: HeLa-CD4-LTR-beta-gal/HL2/3 cell fusion, beta-gal luminescence
# Assay: inhibitors of X4 HIV-1 Env-mediated cell fusion, dose response, HeLa-CD4-LTR-beta-gal/HL2/3 cells, beta-gal luminescence (AID 504367)
row,IC50,Structure (SMILES)
1,> 100 µM (inactive),CCOC(=O)C1=C(C)N=c2sc(=Cc3ccc(OCC(=O)O)cc3)c(=O)n2C1c1ccccc1OC (stereo not drawn)
2,60.4 µM,Cc1c2c(=O)n(-c3nc4ccccc4s3)nc-2cc(O)n1C1CC1
3,3.86 µM,O=C(O)CCCN1C(=O)/C(=C\c2ccc(-c3ccc(F)cc3)o2)SC1=S
4,50.1 µM,Cc1c2c(=O)n(-c3nc4ccccc4s3)nc-2cc(O)n1Cc1cccs1
5,> 100 µM (inactive),CCOC(=O)C1=C(C)N=c2sc(=Cc3ccc(OCC(=O)O)cc3)c(=O)n2C1c1cc(OC)c(OC)c(OC)c1 (stereo not drawn)
6,58.1 µM,CS(=O)(=O)C1=NSC2=NC(=O)/C(=C\c3cccn3-c3ccc(F)cc3)C(=N)N21
7,32.1 µM,CS(=O)(=O)C1=NSC2=NC(=O)/C(=C\c3cccn3-c3cccc(Cl)c3)C(=N)N21
8,> 100 µM (inactive),Cc1c2c(=O)n(-c3nc4ccccc4s3)nc-2cc(O)n1CCc1cccs1
9,49.2 µM,COc1ccc(Cn2c(O)cc3nn(-c4nc5ccccc5s4)c(=O)c-3c2C)cc1
10,48.4 µM,CC1=C(C(=O)OC(C)C)C(c2ccc(Cl)cc2)n2c(s/c(=C\c3ccc(OCC(=O)O)cc3)c2=O)=N1 (stereo not drawn)
11,25.2 µM,O=C(O)CCCN1C(=O)/C(=C\c2ccc(-c3ccc(Cl)cc3)o2)SC1=S
12,18.4 µM,COc1ccccc1NS(=O)(=O)c1ccc2c(c1)C1C=CCC1C(c1ccc(C(=O)O)cc1)N2 (stereo not drawn)
13,> 100 µM (inactive),CCOC(=O)C1=C(C)N=c2sc(=Cc3ccc(OCC(=O)O)cc3)c(=O)n2C1c1ccc(OC)cc1OC (stereo not drawn)
14,> 100 µM (inactive),COc1cccc(-n2cccc2/C=C2/C(=N)N3C(=NC2=O)SN=C3S(C)(=O)=O)c1
15,> 100 µM (inactive),COc1cccc(C2C(C(=O)Nc3ccccc3)=C(C)N=c3sc(=Cc4ccc(OCC(=O)O)cc4)c(=O)n32)c1 (stereo not drawn)
16,> 100 µM (inactive),O=C(O)CCC(C(=O)O)N1C(=O)/C(=C\c2ccco2)SC1=S (stereo not drawn)
17,39.4 µM,O=C(O)c1ccc([C@@H]2Nc3ccc(S(=O)(=O)Nc4cccc5ccccc45)cc3[C@@H]3C=CC[C@@H]32)cc1
18,21.4 µM,Cc1ccc(-n2cccc2/C=C2/C(=N)N3C(=NC2=O)SN=C3S(C)(=O)=O)cc1C
19,39.9 µM,Cc1ccc(-n2cccc2/C=C2/C(=N)N3C(=NC2=O)SN=C3S(C)(=O)=O)cc1
20,43.6 µM,Cc1c2c(=O)n(-c3nc4ccccc4s3)nc-2cc(O)n1CCc1ccc(O)cc1
21,4.6 µM,Cc1ccc(-c2ccc(/C=C3\SC(=S)N(CCCC(=O)O)C3=O)o2)cc1
22,> 100 µM (inactive),Nc1sc2ccccc2[n+]1Cc1ccc(C(=O)O)cc1
23,> 100 µM (inactive),O=C(O)c1ccc(C[n+]2c(-c3ccc([N+](=O)[O-])cc3)csc2Nc2ccccc2)cc1
24,2.47 µM,CCc1ccc(-c2ccc(/C=C3\SC(=S)N(CCCC(=O)O)C3=O)o2)cc1
25,99.9 µM,CCOc1ccc(-n2cccc2/C=C2/C(=N)N3C(=NC2=O)SN=C3S(C)(=O)=O)cc1
26,> 100 µM (inactive),CCOC(=O)C1=C(C)N=c2sc(=Cc3ccc(OCC(=O)O)cc3)c(=O)n2C1c1ccccc1 (stereo not drawn)
27,> 100 µM (inactive),Cc1c2c(=O)n(-c3nc4ccccc4s3)nc-2cc(O)n1Cc1ccncc1

row,IC50,Structure (SMILES)
1,67.7 µM,CS(=O)(=O)C1=NSC2=NC(=O)/C(=C\c3cccn3-c3ccc(Cl)cc3)C(=N)N21
2,42.2 µM,COc1ccccc1Cn1c(O)cc2nn(-c3nc4ccccc4s3)c(=O)c-2c1C
3,> 100 µM (inactive),Cc1c2c(=O)n(-c3nc4ccccc4s3)nc-2cc(O)n1Cc1cccnc1
4,44.5 µM,CS(=O)(=O)C1=NSC2=NC(=O)/C(=C\c3cccn3-c3ccc(Cl)c(Cl)c3)C(=N)N21
5,40 µM,Cc1c2c(=O)n(-c3nc4ccccc4s3)nc-2cc(O)n1CCC(C)C
6,0.47 µM,O=C(O)CCCN1C(=O)/C(=C\c2ccc(-c3ccc(Br)cc3)o2)SC1=S
7,> 100 µM (inactive),O=C(O)c1ccc(C[n+]2c(-c3ccccc3)csc2Nc2ccccc2)cc1
8,27.7 µM,CCOC(=O)C1=C(C)N=c2s/c(=C\c3ccc(OCC(=O)O)cc3)c(=O)n2C1c1ccc(OC)c(OCC)c1 (stereo not drawn)
9,31.8 µM,O=C(O)CCCN1C(=O)/C(=C\c2ccc(-c3cccc(Cl)c3)o2)SC1=S
10,1.66 µM,COc1ccc(-c2ccc(/C=C3\SC(=S)N(CCCC(=O)O)C3=O)o2)cc1
11,> 100 µM (inactive),CS(=O)(=O)C1=NSC2=NC(=O)/C(=C\c3cccn3-c3cccc(C(F)(F)F)c3)C(=N)N21
12,77.1 µM,CCOC(=O)C1=C(C)N=c2sc(=Cc3ccc(OCC(=O)O)cc3)c(=O)n2C1c1ccc(F)cc1 (stereo not drawn)
13,2.1 µM,O=C(O)CCCN1C(=O)/C(=C/c2ccc(-c3ccc(Cl)c(Cl)c3)o2)SC1=S
14,25.2 µM,CS(=O)(=O)C1=NSC2=NC(=O)/C(=C\c3cccn3-c3ccc(Br)cc3)C(=N)N21
15,35.9 µM,COc1ccc(CCn2c(O)cc3nn(-c4nc5ccccc5s4)c(=O)c-3c2C)cc1
16,> 100 µM (inactive),O=C(O)CCCN1C(=O)/C(=C/c2ccc(-c3cccc(C(F)(F)F)c3)o2)SC1=S
17,50 µM,CCOC(=O)C1=C(C)N=c2s/c(=C\c3ccc(OCC(=O)O)cc3)c(=O)n2C1c1ccc(Cl)cc1 (stereo not drawn)
18,46 µM,CCc1ccc(-n2cccc2/C=C2/C(=N)N3C(=NC2=O)SN=C3S(C)(=O)=O)cc1
19,55.3 µM,Cc1c2c(=O)n(-c3nc4ccccc4s3)nc-2cc(O)n1Cc1ccc(F)cc1
20,> 100 µM (inactive),COc1ccc(-n2cccc2/C=C2/C(=N)N3C(=NC2=O)SN=C3S(C)(=O)=O)cc1Cl
21,> 100 µM (inactive),O=C(O)CCCN1C(=O)/C(=C/c2cc3ccccc3o2)SC1=S
22,62.7 µM,CS(=O)(=O)C1=NSC2=NC(=O)/C(=C\c3cccn3-c3cccc(F)c3)C(=N)N21
23,> 100 µM (inactive),CS(=O)(=O)C1=NSC2=NC(=O)/C(=C\c3cccn3-c3cc(Cl)cc(Cl)c3)C(=N)N21
24,29.5 µM,Cc1c2c(=O)n(-c3nc4ccccc4s3)nc-2cc(O)n1Cc1ccccc1Cl
25,36.8 µM,O=C(O)c1ccc(C2Nc3ccc(S(=O)(=O)Nc4cc(Cl)ccc4Cl)cc3C3C=CCC32)cc1 (stereo not drawn)
26,23.3 µM,CCOC(=O)C1=C(c2ccccc2)N=c2s/c(=C\c3ccc(OCC(=O)O)cc3)c(=O)n2C1c1cccc(OC)c1 (stereo not drawn)

# Source: PubChem BioAssay AID504367 (Southern Research Specialized Biocontainment Screening …, 2011)
